Biological target: T1, TAP/hUS6 complex (Homo sapiens, UniProt Q03518+Q03519)
T1 construct: gene TAP1; TAP1 C-terminal SpyCatcher, TAP2, hUS6 with SpyTag at its cytoplasmic terminus (covalent tether), GFP tag cleaved; HEK293S GnTI-; in GDN; hUS6 residues 102-136 resolved; with Unique short US6 glycoprotein
Test: cryo-EM structure of the complex
Format: binding
Settings: pH 6.5

T1 sequence (P14334 20-183): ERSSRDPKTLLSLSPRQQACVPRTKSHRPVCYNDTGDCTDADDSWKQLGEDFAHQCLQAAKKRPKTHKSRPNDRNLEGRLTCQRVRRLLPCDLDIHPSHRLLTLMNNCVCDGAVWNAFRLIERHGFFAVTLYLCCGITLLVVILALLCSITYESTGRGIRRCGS
T1 sequence (Q03518 whole entry, the tested form may be a part): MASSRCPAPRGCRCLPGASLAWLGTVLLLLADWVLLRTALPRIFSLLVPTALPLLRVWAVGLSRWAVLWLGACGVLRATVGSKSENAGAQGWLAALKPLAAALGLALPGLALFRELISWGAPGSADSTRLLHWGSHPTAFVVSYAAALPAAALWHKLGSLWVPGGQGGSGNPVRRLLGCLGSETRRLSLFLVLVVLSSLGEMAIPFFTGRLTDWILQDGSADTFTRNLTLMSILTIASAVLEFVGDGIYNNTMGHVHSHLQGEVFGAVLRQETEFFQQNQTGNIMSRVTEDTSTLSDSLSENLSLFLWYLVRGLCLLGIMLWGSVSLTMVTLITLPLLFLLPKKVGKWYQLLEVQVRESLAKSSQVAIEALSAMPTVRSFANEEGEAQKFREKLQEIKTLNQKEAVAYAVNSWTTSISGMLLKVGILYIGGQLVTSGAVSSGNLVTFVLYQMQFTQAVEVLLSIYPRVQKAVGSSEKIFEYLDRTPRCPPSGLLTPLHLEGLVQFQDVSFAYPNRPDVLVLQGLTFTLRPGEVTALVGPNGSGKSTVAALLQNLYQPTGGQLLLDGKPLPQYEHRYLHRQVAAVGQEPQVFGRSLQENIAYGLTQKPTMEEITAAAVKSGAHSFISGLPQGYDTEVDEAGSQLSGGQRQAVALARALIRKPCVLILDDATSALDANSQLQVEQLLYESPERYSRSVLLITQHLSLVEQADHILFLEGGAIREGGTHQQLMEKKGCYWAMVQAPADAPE
T1 sequence (Q03519 whole entry, the tested form may be a part): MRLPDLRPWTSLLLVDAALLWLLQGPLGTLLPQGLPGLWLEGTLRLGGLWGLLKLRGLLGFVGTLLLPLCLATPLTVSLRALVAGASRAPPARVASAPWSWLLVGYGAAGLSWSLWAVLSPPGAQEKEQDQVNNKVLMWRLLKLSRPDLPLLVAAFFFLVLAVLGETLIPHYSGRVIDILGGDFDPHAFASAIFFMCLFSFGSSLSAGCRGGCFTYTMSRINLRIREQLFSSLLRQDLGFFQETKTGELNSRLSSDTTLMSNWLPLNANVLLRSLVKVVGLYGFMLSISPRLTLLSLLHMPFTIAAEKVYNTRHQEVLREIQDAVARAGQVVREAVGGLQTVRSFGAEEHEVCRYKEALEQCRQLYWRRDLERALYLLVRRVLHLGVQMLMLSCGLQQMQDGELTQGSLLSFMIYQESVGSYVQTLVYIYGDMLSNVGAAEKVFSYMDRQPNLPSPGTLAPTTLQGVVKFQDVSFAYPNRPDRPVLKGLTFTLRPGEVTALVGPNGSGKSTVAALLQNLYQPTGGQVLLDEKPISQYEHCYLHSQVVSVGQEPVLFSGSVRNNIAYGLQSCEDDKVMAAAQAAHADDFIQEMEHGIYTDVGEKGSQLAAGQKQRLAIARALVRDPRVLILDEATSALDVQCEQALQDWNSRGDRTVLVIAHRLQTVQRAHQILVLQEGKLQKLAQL

SMILES	cryo-EM structure of the complex (10 mM ATP, ATP at the degenerate NBD site, outward-facing, NBD-dimerized)	cryo-EM structure of the complex (10 mM ATP added, ADP at the consensus NBD site, posthydrolytic state)
Nc1ncnc2c1ncn2[C@@H]1O[C@H](COP(=O)(O)OP(=O)(O)OP(=O)(O)O)[C@@H](O)[C@H]1O [ATP]	densities corresponding to ATP bound at the degenerate site and ADP at the consensus site	
Nc1ncnc2c1ncn2[C@@H]1O[C@H](COP(=O)(O)OP(=O)(O)O)[C@@H](O)[C@H]1O [ADP]		densities corresponding to ATP bound at the degenerate site and ADP at the consensus site

Source: PMC12478189, “Structurally diverse viral inhibitors converge on a shared mechanism to stall the antigen transporter TAP” (Proceedings of the National Academy of Sciences of the …, 2025)
